Paper PMC12858467, “In vitro toxicokinetics and metabolic profiling of methoxycathinones and methylthiocathinones using human liver systems and hyphenated mass spectrometry” (Archives of Toxicology, 2025)

Experiments:
Type in all cases: in vitro ADME
Conditions in all cases: 30 min, 37 °C
CYP2B6 = molecular target: T1, CYP2B6 (Homo sapiens, UniProt P20813); test: Monooxygenases activity screening, CYP2B6; parameters: key: +, detected; -, not detected
T1 construct: purchased Discovery Life Sciences (Huntsville, LA, USA); host or cells: baculovirus-infected insect cells (microsomes, Supersomes)
T1 sequence (P20813 1-491): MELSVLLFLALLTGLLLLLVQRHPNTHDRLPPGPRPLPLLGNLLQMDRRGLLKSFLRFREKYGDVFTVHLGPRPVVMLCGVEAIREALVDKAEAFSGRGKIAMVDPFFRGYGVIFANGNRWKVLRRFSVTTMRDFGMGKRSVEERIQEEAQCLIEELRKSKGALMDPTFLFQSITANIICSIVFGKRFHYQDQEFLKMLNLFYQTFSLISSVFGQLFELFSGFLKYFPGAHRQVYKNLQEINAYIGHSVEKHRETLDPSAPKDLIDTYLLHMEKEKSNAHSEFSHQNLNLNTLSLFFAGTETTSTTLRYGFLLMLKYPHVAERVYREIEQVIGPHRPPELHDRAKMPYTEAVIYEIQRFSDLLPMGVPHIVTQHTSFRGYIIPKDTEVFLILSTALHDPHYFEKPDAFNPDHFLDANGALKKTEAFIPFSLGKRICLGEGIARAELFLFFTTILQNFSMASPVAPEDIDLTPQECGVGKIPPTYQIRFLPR
Protocol: (§1) For incubations with CYP2A6 or CYP2C9, phosphate buffer was replaced with 90 mM Tris buffer, according to the manufacturer’s guideline. […] All incubations were done in duplicate and concentrations were fixed. Verapamil (25 µM) was incubated as a positive control.

CYP3A4 = molecular target: T2, CYP3A4 (Homo sapiens, UniProt P08684); test: Monooxygenases activity screening, CYP3A4; parameters: key: +, detected; -, not detected
T2 construct: purchased Discovery Life Sciences (Huntsville, LA, USA); host or cells: baculovirus-infected insect cells (microsomes, Supersomes)
Protocol: as §1

CYP2E1 = molecular target: T3, CYP2E1 (Homo sapiens, UniProt P05181); test: Monooxygenases activity screening, CYP2E1; parameters: key: +, detected; -, not detected
T3 construct: purchased Discovery Life Sciences (Huntsville, LA, USA); host or cells: baculovirus-infected insect cells (microsomes, Supersomes)
Protocol: as §1

CYP2C19 = molecular target: T4, CYP2C19 (Homo sapiens, UniProt P33261); test: Monooxygenases activity screening, CYP2C19; parameters: key: +, detected; -, not detected
T4 construct: purchased Discovery Life Sciences (Huntsville, LA, USA); host or cells: baculovirus-infected insect cells (microsomes, Supersomes)
Protocol: as §1

[1] = molecular target: T5, flavin-containing monooxygenase 3 (FMO3) (Homo sapiens, UniProt P31513); test: Monooxygenases activity screening, FMO3; parameters: key: +, detected; -, not detected
T5 construct: purchased Discovery Life Sciences (Huntsville, LA, USA); host or cells: baculovirus-infected insect cells (microsomes, Supersomes)
T5 sequence (P31513 1-532): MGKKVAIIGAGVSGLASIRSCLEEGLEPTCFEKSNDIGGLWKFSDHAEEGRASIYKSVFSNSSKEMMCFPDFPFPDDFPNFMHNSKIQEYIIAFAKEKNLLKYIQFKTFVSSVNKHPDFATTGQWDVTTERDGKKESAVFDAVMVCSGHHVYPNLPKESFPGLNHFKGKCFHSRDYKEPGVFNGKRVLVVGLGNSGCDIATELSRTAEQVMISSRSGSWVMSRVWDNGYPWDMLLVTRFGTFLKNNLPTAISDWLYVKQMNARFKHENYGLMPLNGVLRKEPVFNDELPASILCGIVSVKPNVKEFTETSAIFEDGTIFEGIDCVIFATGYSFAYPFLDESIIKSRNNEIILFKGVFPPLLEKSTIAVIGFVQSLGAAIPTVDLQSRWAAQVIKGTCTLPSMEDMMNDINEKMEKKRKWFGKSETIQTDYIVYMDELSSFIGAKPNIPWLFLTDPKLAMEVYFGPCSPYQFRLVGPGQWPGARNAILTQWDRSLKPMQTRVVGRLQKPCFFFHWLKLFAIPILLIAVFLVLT
Protocol: as §1

CYP2A6 = molecular target: T6, CYP2A6 (Homo sapiens, UniProt P11509); test: Monooxygenases activity screening, CYP2A6; parameters: key: +, detected; -, not detected
T6 construct: purchased Discovery Life Sciences (Huntsville, LA, USA); host or cells: baculovirus-infected insect cells (microsomes, Supersomes)
T6 sequence (P11509 1-494): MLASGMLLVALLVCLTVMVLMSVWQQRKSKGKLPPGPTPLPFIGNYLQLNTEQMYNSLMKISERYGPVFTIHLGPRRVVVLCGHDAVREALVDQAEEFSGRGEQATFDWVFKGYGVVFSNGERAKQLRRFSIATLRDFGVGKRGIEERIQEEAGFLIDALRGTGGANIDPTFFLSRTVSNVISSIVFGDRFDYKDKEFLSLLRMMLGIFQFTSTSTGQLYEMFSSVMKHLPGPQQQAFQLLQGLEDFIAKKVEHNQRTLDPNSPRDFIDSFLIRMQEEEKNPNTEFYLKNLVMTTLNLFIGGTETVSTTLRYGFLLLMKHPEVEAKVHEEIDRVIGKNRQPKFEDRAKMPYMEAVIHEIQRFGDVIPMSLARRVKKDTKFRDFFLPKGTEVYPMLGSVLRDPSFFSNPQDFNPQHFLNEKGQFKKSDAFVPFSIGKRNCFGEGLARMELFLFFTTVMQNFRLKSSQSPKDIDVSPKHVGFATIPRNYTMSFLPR
Protocol: as §1

CYP3A5 = molecular target: T7, CYP3A5 (Homo sapiens, UniProt P20815); test: Monooxygenases activity screening, CYP3A5; parameters: key: +, detected; -, not detected
T7 construct: purchased Discovery Life Sciences (Huntsville, LA, USA); host or cells: baculovirus-infected insect cells (microsomes, Supersomes)
Protocol: as §1

CYP2D6 = molecular target: T8, CYP2D6 (Homo sapiens, UniProt P10635); test: Monooxygenases activity screening, CYP2D6; parameters: key to one-step metabolite detected in CYP2D6 incubation: +, detected; -, not detected
T8 construct: purchased Discovery Life Sciences (Huntsville, LA, USA); host or cells: baculovirus-infected insect cells (microsomes, Supersomes)
Protocol: as §1

CYP2C8 = molecular target: T9, CYP2C8 (Homo sapiens, UniProt P10632); test: Monooxygenases activity screening, CYP2C8; parameters: key: +, detected; -, not detected
T9 construct: purchased Discovery Life Sciences (Huntsville, LA, USA); host or cells: baculovirus-infected insect cells (microsomes, Supersomes)
T9 sequence (P10632 1-490): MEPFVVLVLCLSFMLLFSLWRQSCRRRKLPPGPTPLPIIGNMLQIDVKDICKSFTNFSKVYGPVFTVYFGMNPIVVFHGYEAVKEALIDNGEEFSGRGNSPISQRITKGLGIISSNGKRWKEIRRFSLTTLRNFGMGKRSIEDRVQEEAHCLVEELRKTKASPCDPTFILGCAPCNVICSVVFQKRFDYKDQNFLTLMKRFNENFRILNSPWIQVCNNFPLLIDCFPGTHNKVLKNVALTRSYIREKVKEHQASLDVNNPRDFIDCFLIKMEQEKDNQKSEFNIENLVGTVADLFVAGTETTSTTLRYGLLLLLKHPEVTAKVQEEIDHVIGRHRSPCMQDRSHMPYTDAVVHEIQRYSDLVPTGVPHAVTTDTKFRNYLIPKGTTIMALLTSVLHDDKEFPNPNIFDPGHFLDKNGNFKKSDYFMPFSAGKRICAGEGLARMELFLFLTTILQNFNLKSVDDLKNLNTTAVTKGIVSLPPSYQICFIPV
Protocol: as §1

CYP1A2 = molecular target: T10, CYP1A2 (Homo sapiens, UniProt P05177); test: Monooxygenases activity screening, CYP1A2; parameters: key: +, detected; -, not detected
T10 construct: purchased Discovery Life Sciences (Huntsville, LA, USA); host or cells: baculovirus-infected insect cells (microsomes, Supersomes)
T10 sequence (P05177 1-516): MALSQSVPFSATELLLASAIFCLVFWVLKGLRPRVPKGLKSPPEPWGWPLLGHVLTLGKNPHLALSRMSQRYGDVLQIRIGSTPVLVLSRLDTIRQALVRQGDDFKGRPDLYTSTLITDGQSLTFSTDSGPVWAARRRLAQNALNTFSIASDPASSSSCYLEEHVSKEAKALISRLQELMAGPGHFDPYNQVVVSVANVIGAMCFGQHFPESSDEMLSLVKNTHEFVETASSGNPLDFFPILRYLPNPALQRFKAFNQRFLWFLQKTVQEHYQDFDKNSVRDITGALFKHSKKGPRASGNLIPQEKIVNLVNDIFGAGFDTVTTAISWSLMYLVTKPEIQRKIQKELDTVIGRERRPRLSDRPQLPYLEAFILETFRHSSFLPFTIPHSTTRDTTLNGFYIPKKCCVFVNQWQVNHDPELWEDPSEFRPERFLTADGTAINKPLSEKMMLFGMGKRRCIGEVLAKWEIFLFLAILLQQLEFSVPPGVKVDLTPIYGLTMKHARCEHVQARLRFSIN
Protocol: as §1

CYP2C9 = molecular target: T11, CYP2C9 (Homo sapiens, UniProt P11712); test: Monooxygenases activity screening, CYP2C9; parameters: key: +, detected; -, not detected
T11 construct: purchased Discovery Life Sciences (Huntsville, LA, USA); host or cells: baculovirus-infected insect cells (microsomes, Supersomes)
Protocol: as §1

[2] = substrate 4MeO-αP-VP 25 µM, Table S3.3
[3] = substrate 4MeS-NE-BP 25 µM, Table S3.4

T4 sequence (P33261 whole entry): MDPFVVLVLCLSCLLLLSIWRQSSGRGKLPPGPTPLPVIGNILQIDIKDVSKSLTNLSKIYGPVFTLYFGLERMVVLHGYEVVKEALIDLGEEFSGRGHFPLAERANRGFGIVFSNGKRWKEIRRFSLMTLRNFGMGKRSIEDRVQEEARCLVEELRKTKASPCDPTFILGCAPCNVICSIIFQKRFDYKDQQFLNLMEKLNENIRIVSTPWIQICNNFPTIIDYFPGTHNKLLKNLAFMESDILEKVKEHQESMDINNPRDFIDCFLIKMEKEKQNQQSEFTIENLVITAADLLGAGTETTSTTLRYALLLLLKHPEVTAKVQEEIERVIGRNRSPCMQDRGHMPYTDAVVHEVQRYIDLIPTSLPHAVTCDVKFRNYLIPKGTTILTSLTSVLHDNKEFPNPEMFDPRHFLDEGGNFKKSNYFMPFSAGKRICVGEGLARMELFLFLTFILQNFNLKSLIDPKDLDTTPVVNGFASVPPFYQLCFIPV
T2 sequence (P08684 whole entry): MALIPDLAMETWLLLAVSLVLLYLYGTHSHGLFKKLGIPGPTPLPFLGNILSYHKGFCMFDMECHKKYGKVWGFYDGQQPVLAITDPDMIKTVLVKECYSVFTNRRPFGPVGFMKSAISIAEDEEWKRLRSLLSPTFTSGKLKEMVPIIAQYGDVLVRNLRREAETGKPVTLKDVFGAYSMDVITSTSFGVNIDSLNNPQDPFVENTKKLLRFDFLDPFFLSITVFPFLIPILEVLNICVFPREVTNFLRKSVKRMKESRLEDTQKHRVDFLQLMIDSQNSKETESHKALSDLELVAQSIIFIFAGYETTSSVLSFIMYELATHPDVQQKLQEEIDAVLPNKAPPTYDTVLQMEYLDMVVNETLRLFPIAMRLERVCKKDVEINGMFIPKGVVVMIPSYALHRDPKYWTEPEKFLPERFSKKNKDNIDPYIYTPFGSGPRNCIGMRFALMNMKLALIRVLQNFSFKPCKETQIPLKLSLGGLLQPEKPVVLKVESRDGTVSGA
T3 sequence (P05181 whole entry): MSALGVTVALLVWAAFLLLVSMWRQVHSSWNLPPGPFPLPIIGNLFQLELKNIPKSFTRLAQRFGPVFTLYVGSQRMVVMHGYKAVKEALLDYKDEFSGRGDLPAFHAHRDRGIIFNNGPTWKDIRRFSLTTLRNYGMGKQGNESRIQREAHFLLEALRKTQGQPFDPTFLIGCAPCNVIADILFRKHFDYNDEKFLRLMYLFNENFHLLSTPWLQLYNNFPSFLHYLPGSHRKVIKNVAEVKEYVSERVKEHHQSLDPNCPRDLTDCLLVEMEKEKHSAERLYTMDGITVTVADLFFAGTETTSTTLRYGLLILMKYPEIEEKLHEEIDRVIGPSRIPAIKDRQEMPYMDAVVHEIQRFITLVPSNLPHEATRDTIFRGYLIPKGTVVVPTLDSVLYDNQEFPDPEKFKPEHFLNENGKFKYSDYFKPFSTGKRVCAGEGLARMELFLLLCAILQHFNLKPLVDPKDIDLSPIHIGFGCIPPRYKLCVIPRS
T8 sequence (P10635 whole entry): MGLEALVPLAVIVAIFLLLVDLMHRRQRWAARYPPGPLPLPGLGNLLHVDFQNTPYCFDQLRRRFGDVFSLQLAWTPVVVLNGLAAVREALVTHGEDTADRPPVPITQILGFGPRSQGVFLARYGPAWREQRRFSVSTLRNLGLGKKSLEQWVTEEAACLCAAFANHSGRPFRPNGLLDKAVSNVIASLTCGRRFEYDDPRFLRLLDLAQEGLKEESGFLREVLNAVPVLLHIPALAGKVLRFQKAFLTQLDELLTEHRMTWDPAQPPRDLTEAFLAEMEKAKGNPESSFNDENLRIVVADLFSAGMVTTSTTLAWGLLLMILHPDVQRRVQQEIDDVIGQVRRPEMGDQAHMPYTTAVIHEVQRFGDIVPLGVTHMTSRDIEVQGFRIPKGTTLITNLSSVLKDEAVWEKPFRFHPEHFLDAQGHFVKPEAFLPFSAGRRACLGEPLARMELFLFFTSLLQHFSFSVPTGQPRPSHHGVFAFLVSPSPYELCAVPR
T11 sequence (P11712 whole entry): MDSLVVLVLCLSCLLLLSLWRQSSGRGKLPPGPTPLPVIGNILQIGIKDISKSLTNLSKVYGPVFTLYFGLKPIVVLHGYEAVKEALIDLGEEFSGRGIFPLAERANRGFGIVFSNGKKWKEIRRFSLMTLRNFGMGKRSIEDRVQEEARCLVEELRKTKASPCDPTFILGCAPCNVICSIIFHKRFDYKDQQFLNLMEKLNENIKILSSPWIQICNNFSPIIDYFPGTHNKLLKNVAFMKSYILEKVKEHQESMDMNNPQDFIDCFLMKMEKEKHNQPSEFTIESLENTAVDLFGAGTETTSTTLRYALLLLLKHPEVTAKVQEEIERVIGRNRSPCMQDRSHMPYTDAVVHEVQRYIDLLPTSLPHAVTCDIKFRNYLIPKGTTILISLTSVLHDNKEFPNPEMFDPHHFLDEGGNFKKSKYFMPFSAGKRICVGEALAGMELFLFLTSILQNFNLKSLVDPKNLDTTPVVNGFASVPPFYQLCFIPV
T7 sequence (P20815 whole entry): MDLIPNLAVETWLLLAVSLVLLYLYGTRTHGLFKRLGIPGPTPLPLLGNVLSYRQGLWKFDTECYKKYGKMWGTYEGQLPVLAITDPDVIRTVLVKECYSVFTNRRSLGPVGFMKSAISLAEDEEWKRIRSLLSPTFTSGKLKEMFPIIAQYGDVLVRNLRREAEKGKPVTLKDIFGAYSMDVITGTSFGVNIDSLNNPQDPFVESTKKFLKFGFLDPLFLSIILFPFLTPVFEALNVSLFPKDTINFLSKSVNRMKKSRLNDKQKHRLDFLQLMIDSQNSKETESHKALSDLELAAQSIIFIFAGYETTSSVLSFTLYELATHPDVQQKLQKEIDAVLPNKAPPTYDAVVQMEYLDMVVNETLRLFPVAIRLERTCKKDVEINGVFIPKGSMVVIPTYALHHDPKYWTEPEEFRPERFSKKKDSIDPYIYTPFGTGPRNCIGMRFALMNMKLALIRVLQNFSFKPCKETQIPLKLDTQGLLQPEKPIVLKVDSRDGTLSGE

Row | Structure (SMILES) | one-step metabolite detected in CYP2B6 incubation (CYP2B6; [2]) | one-step metabolite detected in CYP3A4 incubation (CYP3A4; [2]) | one-step metabolite detected in CYP2E1 incubation (CYP2E1; [2]) | one-step metabolite detected in CYP2C19 incubation (CYP2C19; [2]) | one-step metabolite detected in FMO3 incubation [1, 2] | one-step metabolite detected in CYP2A6 incubation (CYP2A6; [2]) | one-step metabolite detected in CYP3A5 incubation (CYP3A5; [2]) | one-step metabolite detected in CYP2D6 incubation (CYP2D6; [2]) | one-step metabolite detected in CYP2C8 incubation (CYP2C8; [2]) | one-step metabolite detected in CYP1A2 incubation (CYP1A2; [2]) | one-step metabolite detected in CYP2C9 incubation (CYP2C9; [2]) | one-step metabolite detected in CYP2B6 incubation (CYP2B6; [3]) | one-step metabolite detected in CYP3A4 incubation (CYP3A4; [3]) | one-step metabolite detected in CYP2E1 incubation (CYP2E1; [3]) | one-step metabolite detected in CYP2C19 incubation (CYP2C19; [3]) | one-step metabolite detected in FMO3 incubation [1, 3] | one-step metabolite detected in CYP2A6 incubation (CYP2A6; [3]) | one-step metabolite detected in CYP3A5 incubation (CYP3A5; [3]) | one-step metabolite detected in CYP2D6 incubation (CYP2D6; [3]) | one-step metabolite detected in CYP2C8 incubation (CYP2C8; [3]) | also measured
1 | CCCC(C(=O)c1ccc(O)cc1)N1CCCC1 (centres unmarked) [MO3.2] | - | + | - | + | - | - | - | + | + | + | - |  |  |  |  |  |  |  |  |  | 
2 | CCCC(C(=O)c1ccc(OC)cc1)[N+]1([O-])CCCC1 (centres unmarked) [MO3.4] | - | + | - | - | + | + | - | + | - | + | - |  |  |  |  |  |  |  |  |  | 
3 | CCNC(CC)C(=O)c1ccc(S)cc1 (centres unmarked) [MT1.1] |  |  |  |  |  |  |  |  |  |  |  | - | - | - | - | - | - | - | + | - | one-step metabolite detected in CYP1A2 incubation (CYP1A2; [3]): -; one-step metabolite detected in CYP2C9 incubation (CYP2C9; [3]): -
4 | CCC(N)C(=O)c1ccc(SC)cc1 (centres unmarked) [MT1.3] |  |  |  |  |  |  |  |  |  |  |  | + | + | - | + | - | - | + | + | + | one-step metabolite detected in CYP1A2 incubation (CYP1A2; [3]): +; one-step metabolite detected in CYP2C9 incubation (CYP2C9; [3]): -
